{"source": "paper PMC6705415", "about": "(Nature structural & molecular biology, 2019)", "key": {"[1]": {"tested_on": "hENT1 Gly154 mutated to serine", "details": "Gly154 to serine mutation in hENT1 versus wild type; cited from earlier work"}, "[2]": {"molecular_target": "T1, hENT1 Met33Ile (hENT1cryst background) (Homo sapiens, UniProt Q99808, DEL243-274/L168F/M33I/N288K/P175A)", "T1 sequence (Q99808 with tags, fused parts or gaps M33I/L168F/P175A/DEL243-274/N288K)": "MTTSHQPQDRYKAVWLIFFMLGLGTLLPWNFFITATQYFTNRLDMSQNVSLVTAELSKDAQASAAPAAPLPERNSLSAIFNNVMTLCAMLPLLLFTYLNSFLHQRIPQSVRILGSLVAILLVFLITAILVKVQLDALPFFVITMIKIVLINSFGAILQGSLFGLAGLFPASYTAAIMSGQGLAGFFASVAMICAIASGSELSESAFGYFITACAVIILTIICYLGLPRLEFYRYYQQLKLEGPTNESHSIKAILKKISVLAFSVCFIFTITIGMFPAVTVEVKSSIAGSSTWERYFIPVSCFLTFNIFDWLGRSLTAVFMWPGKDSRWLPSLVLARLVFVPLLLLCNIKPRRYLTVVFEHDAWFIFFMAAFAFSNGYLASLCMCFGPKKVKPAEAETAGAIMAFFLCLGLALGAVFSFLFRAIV", "test": "Cold dilazep displacement of 3H-NBMPR", "assay_type": "binding", "details": "Met33Ile relative to hENT1cryst; displacement of 100 nM 3H-NBMPR"}, "[3]": {"molecular_target": "T2, hENT1 Phe307Ala (hENT1cryst background) (Homo sapiens, UniProt Q99808, DEL243-274/F307A/L168F/N288K/P175A)", "T2 sequence (Q99808 with tags, fused parts or gaps L168F/P175A/DEL243-274/N288K/F307A)": "T1 sequence (Q99808 with tags, fused parts or gaps M33I/L168F/P175A/DEL243-274/N288K) with I33M, F275A", "test": "Cold dilazep displacement of 3H-NBMPR", "assay_type": "binding", "details": "Phe307Ala relative to hENT1cryst; displacement of 100 nM 3H-NBMPR"}, "[4]": {"molecular_target": "T3, hENT1 Phe307Tyr (hENT1cryst background) (Homo sapiens, UniProt Q99808, DEL243-274/F307Y/L168F/N288K/P175A)", "T3 sequence (Q99808 with tags, fused parts or gaps L168F/P175A/DEL243-274/N288K/F307Y)": "T1 sequence (Q99808 with tags, fused parts or gaps M33I/L168F/P175A/DEL243-274/N288K) with I33M, F275Y", "test": "Cold dilazep displacement of 3H-NBMPR", "assay_type": "binding", "details": "Phe307Tyr relative to hENT1cryst; displacement of 100 nM 3H-NBMPR"}}, "note": "Where a chain is given by its changes, count along the chain named."}
{"smiles": "O=[N+]([O-])c1ccc(CSc2ncnc3c2ncn3[C@@H]2O[C@H](CO)[C@@H](O)[C@H]2O)cc1", "note": "[NBMPR, S-(4-Nitrobenzyl)-6-thioinosine]", "values": [{"measurement": "decrease in NBMPR inhibitory potency", "setting": "[1]", "result": "~ 2,500 fold"}]}
{"smiles": "COc1cc(C(=O)OCCCN2CCCN(CCCOC(=O)c3cc(OC)c(OC)c(OC)c3)CC2)cc(OC)c1OC", "note": "[dilazep]", "values": [{"measurement": "increase in apparent Kd for dilazep", "setting": "[2]", "result": "~ 3 fold"}, {"measurement": "increase in apparent Kd for dilazep", "setting": "[3]", "result": "~ 90 fold"}, {"measurement": "decrease in apparent Kd for dilazep", "setting": "[4]", "result": "~ 4 fold"}]}
